Where only a bound is given, the exact number is not on record here.

T1 sequence (P35790 75-457): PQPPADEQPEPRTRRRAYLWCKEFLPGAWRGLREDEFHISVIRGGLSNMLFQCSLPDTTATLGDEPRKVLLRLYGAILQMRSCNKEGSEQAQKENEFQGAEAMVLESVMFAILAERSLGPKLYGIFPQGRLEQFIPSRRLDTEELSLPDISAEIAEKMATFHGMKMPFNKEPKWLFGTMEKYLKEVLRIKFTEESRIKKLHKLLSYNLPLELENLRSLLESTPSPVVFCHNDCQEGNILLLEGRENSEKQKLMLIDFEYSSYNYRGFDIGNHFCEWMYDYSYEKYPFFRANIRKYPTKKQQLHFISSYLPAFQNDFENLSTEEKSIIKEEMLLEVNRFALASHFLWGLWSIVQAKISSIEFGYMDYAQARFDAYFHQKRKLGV

One assay has as its target T1, truncated form of human Choline kinase α1 that includes residues 75-457 (Homo sapiens, UniProt P35790).
T1 construct: made in house
In words: Kinase Assay, coupled (ATP regeneration) LDH/PK assay, NADH absorbance. Format: biochemical.
Settings: not given
The protocol: Absorbance of NADH (340 nm) was measured over 30 min using a SpectraMax M5 (Molecular Devices). Initial reaction velocity (ΔA340/Δt) was calculated and plotted as a function of inhibitor concentration in a 2-fold dilution series. IC50 values were obtained by fitting the relative velocities to a dose-response model.
Usually IC50 stands for the concentration at which inhibition is half-maximal. `CN1CCCN(Cc2ccc(-c3ccc(C(=O)N4CCCCC4)cc3)c(C#N)c2)CC1` [Example 34, 4-((4-methyl-1,4-diazepan-1-yl)methyl)-4′-(piperidine-1-carbonyl)-[1,1′-biphenyl]-2-carbonitrile] showed an IC50 of under 0.5 µM.

For the molecule `CN1CCCN(Cc2ccc(-c3ccc(C(=O)N4CCC(=O)CC4)cc3)c(C#N)c2)CC1` [Example 31, 4-((4-methyl-1,4-diazepan-1-yl)methyl)-4′-(4-oxopiperidine-1-carbonyl)-[1,1′-biphenyl]-2-carbonitrile], the IC50 is under 2 µM.

The same assay, now with this note: Examples designated with an asterisk (*): version 1 of the Kinase Assay, 200 nM enzyme; read-out: IC50.
Consider `CN1CCCN(Cc2ccc(CN3CC[C@@H](O)C3)cc2)CC1` [Example 150, (R)-1-(4-((4-methyl-1,4-diazepan-1-yl)methyl)benzyl)pyrrolidin-3-ol], for which the IC50 was under 50 µM.

Regarding `CN1CCCN(Cc2ccc(Cn3cncn3)cc2)CC1` [Example 143, 1-(4-((1H-1,2,4-triazol-1-yl)methyl)benzyl)-4-methyl-1,4-diazepane], the IC50 is under 50 µM.

As for `CN1CCC(N2CCN(Cc3ccc(CN4CCCN(C)CC4)cc3)CC2)CC1` [Example 149, 1-methyl-4-(4-((4-(1-methylpiperidin-4-yl)piperazin-1-yl)methyl)benzyl)-1,4-diazepane], the IC50 was under 50 µM.

The same assay, now with this note: Examples not designated with an asterisk; footnote prints version 1 of the Kinase Assay; read-out: IC50.
As to `CN1CCCN(Cc2ccc(-c3ccc(C(=O)N4CCC(O)C4)cc3)c(C#N)c2)CC1` (stereo not drawn) [Example 25, 4′-(3-hydroxypyrrolidine-1-carbonyl)-4-((4-methyl-1,4-diazepan-1-yl)methyl)-[1,1′-biphenyl]-2-carbonitrile], the IC50 was under 0.5 µM. On to `CN1CCCN(Cc2ccc(-c3ccc(C(=O)N4CCCN(C)CC4)cc3-c3ccc([N+](=O)[O-])cc3)c(C#N)c2)CC1` [Example 73, 4-((4-methyl-1,4-diazepan-1-yl)methyl)-4′-(4-methyl-1,4-diazepane-1-carbonyl)-4″-nitro-[1,1′:2′,1″-terphenyl]-2-carbonitrile], for which the IC50 was under 0.5 µM. The same measure, in the same setting: to `CN1CCCN(Cc2ccc(-c3ccc(C(=O)N4CCC(N5CCOCC5)CC4)cc3)cc2)CC1` [Example 39, (4′-((4-methyl-1,4-diazepan-1-yl)methyl)-[1,1′-biphenyl]-4-yl)(4-morpholinopiperidin-1-yl)methanone] belongs under 50 µM. For the molecule `CCOC(=O)Cc1ccc(-c2ccc(CN3CCCN(C)CC3)cc2)cc1` [Example 130, ethyl 2-(4′-((4-methyl-1,4-diazepan-1-yl)methyl)-[1,1′-biphenyl]-4-yl)acetate], the IC50 was under 50 µM. Still for that read-out and setting: to `CNC(=O)NCc1ccc(-c2ccc(CN3CCCN(C)CC3)cc2C#N)cc1` [Example 47, 1-((2′-cyano-4′-((4-methyl-1,4-diazepan-1-yl)methyl)-[1,1′-biphenyl]-4-yl)methyl)-3-methylurea] belongs under 0.5 µM; to `CN1CCCN(Cc2ccc(-c3ccc(/C(N)=N/O)cc3)c(C#N)c2)CC1` [Example 99, (E)-2′-cyano-N′-hydroxy-4′-((4-methyl-1,4-diazepan-1-yl)methyl)-[1,1′-biphenyl]-4-carboximidamide], under 0.5 µM. The same measure, in the same setting: to `CN1CCCN(Cc2ccc(-c3cnc(N)nc3)c(C#N)c2)CC1` [Example 119, 2-(2-aminopyrimidin-5-yl)-5-((4-methyl-1,4-diazepan-1-yl)methyl)benzonitrile] belongs under 2 µM; to `CN1CCCN(Cc2ccc(-c3ccc(C(=O)N4CCCN(C)CC4)cc3-c3ccc(S(C)(=O)=O)cc3)c(C#N)c2)CC1` [Example 75, 4-((4-methyl-1,4-diazepan-1-yl)methyl)-4′-(4-methyl-1,4-diazepane-1-carbonyl)-4″-(methylsulfonyl)-[1,1′1:2′,1″-terphenyl]-2-carbonitrile], under 0.5 µM; to `Cc1cc(-c2ccc(CN3CCCN(C)CC3)cc2C#N)cnc1N` [Example 118, 2-(6-amino-5-methylpyridin-3-yl)-5-((4-methyl-1,4-diazepan-1-yl)methyl)benzonitrile], under 2 µM.

With `CN1CCCN(Cc2ccc(-c3ccc(CN4CCCCC4)cc3)c(C#N)c2)CC1` [Example 13, 4-((4-methyl-1,4-diazepan-1-yl)methyl)-4′-(piperidin-1-ylmethyl)-[1,1′-biphenyl]-2-carbonitrile], the IC50 was under 2 µM. As for `Cc1cc(S(=O)(=O)N(C)C)ccc1-c1ccc(CN2CCCN(C)CC2)cc1C#N` [Example 98, 2′-cyano-N,N,2-trimethyl-4′-((4-methyl-1,4-diazepan-1-yl)methyl)-[1,1′-biphenyl]-4-sulfonamide], the IC50 is under 0.5 µM. The same measure, in the same setting: to `CN1CCCN(Cc2ccc(-c3ccc(C(=O)N4CCC(O)CC4)cc3)c(C#N)c2)CC1` [Example 19, 4′-(4-hydroxypiperidine-1-carbonyl)-4-((4-methyl-1,4-diazepan-1-yl)methyl)-[1,1′-biphenyl]-2-carbonitrile] belongs under 0.5 µM; to `CC(=O)NCCc1ccc(-c2ccc(CN3CCCN(C)CC3)cc2C#N)cc1` [Example 95, N-(2-(2′-cyano-4′-((4-methyl-1,4-diazepan-1-yl)methyl)-[1,1′-biphenyl]-4-yl)ethyl)acetamide], under 0.5 µM; to `CN1CCCN(Cc2ccc(-c3cccc4ccccc34)c(C#N)c2)CC1` [Example 125, 5-((4-methyl-1,4-diazepan-1-yl)methyl)-2-(naphthalen-1-yl)benzonitrile], under 50 µM. On the same count and under the same terms, to `CN1CCCN(Cc2ccc(-c3ccc(CC(N)C(=O)O)cc3)c(C#N)c2)CC1` (stereo not drawn) [Example 100, 2-amino-3-(2′-cyano-4′-((4-methyl-1,4-diazepan-1-yl)methyl)-[1,1′-biphenyl]-4-yl)propanoic acid] belongs under 0.5 µM. `CC(=O)Nc1cc(-c2ccc(CN3CCCN(C)CC3)cc2C#N)ccc1[N+](=O)[O-]` [Example 110, N-(2′-cyano-4′-((4-methyl-1,4-diazepan-1-yl)methyl)-4-nitro-[1,1′-biphenyl]-3-yl)acetamide]: the IC50 is under 0.5 µM. The same measure, in the same setting: to `CN1CCCN(Cc2ccc(-c3ccc(CNCCNC(=O)OC(C)(C)C)cc3)c(C#N)c2)CC1` [Example 10, tert-butyl(2-(((2′-cyano-4′-((4-methyl-1,4-diazepan-1-yl)methyl)-[1,1′-biphenyl]-4-yl)methyl)amino)ethyl)carbamate] belongs under 0.5 µM.

`CN1CCCN(Cc2ccc(-c3ccc(CC(=O)O)cc3)c(C#N)c2)CC1` [Example 127, 2-(2′-cyano-4′-((4-methyl-1,4-diazepan-1-yl)methyl)-[1,1′-biphenyl]-4-yl)acetic acid]: the IC50 is under 50 µM. As for `CN1CCCN(Cc2ccc(-c3ccc(N)nc3)c(C#N)c2)CC1` [Example 111, 2-(6-aminopyridin-3-yl)-5-((4-methyl-1,4-diazepan-1-yl)methyl)benzonitrile], the half-maximal inhibitory concentration (IC50) is under 0.5 µM. The same measure, in the same setting: to `Cc1cc(-c2ccc(CN3CCCN(C)CC3)cc2)ccc1CN1CCCN(C)CC1` [Example 54, 4,4′-((3-methyl-[1,1′-biphenyl]-4,4′-diyl)bis(methylene))bis(1-methyl-1,4-diazepane)] belongs under 0.5 µM; to `CN1CCCN(Cc2ccc(-c3ccc(CCC(=O)O)cc3)cc2)CC1` [Example 132, 3-(4′-((4-methyl-1,4-diazepan-1-yl)methyl)-[1,1′-biphenyl]-4-yl)propanoic acid], under 50 µM; to `CC(=O)N1CCN(c2ccc(-c3ccc(CN4CCCN(C)CC4)cc3)cn2)CC1` [Example 120, 1-(4-(5-(4-((4-methyl-1,4-diazepan-1-yl)methyl)phenyl)pyridin-2-yl)piperazin-1-yl)ethanone], under 2 µM. For `CN1CCCN(Cc2ccc(-c3ccc(C(=O)N4CCCC(O)C4)cc3)c(C#N)c2)CC1` (stereo not drawn) [Example 23, 4′-(3-hydroxypiperidine-1-carbonyl)-4-((4-methyl-1,4-diazepan-1-yl)methyl)-[1,1′-biphenyl]-2-carbonitrile], the IC50 is under 0.5 µM. The same measure, in the same setting: to `Cc1cc(CN2CCCN(C)CC2)ccc1-c1ccc(CN2CCCN(C)CC2)cc1` [Example 49, 4,4′-((2-methyl-[1,1′-biphenyl]-4,4′-diyl)bis(methylene))bis(1-methyl-1,4-diazepane)] belongs under 0.5 µM; to `Cc1ccc(-c2cc(C(=O)N3CCCN(C)CC3)ccc2-c2ccc(CN3CCCN(C)CC3)cc2C#N)cc1` [Example 70, 4″-methyl-4-((4-methyl-1,4-diazepan-1-yl)methyl)-4′-(4-methyl-1,4-diazepane-1-carbonyl)-[1,1′1:2′,1″-terphenyl]-2-carbonitrile], under 0.5 µM. Take `COCCN1CCN(Cc2ccc(-c3ccc(CN4CCCN(C)CC4)cc3C#N)cc2)CC1` [Example 3, 4′-((4-(2-methoxyethyl)piperazin-1-yl)methyl)-4-((4-methyl-1,4-diazepan-1-yl)methyl)-[1,1′-biphenyl]-2-carbonitrile]: the IC50 is under 0.5 µM. The same measure, in the same setting: to `CC(=O)N1CC=C(c2ccc(CN3CCCN(C)CC3)cc2C#N)CC1` [Example 103, 2-(1-acetyl-1,2,3,6-tetrahydropyridin-4-yl)-5-((4-methyl-1,4-diazepan-1-yl)methyl)benzonitrile] belongs under 0.5 µM; to `CN1CCCN(Cc2ccc(-c3ccccc3C(N)=O)cc2)CC1` [Example 133, 4′-((4-methyl-1,4-diazepan-1-yl)methyl)-[1,1′-biphenyl]-2-carboxamide], under 50 µM. Same read-out and setting: to `CC(=O)N1CCN(C(=O)c2ccc(-c3ccc(CN4CCCN(C)CC4)cc3)cc2)CC1` [Example 38, 1-(4-(4′-((4-methyl-1,4-diazepan-1-yl)methyl)-[1,1′-biphenyl]-4-carbonyl)piperazin-1-yl)ethanone] belongs under 50 µM; to `CN1CCCN(Cc2ccc(-c3ccc(C(=O)N4CCCN(C)CC4)cc3-c3ccc(C(=O)N(C)C)cc3)c(C#N)c2)CC1` [Example 76], under 2 µM.

On to `CN1CCCN(Cc2ccc(-c3ccc(C(=O)O)cc3Br)c(C#N)c2)CC1` [Example 157, 2-bromo-2′-cyano-4′-((4-methyl-1,4-diazepan-1-yl)methyl)-[1,1′-biphenyl]-4-carboxylic acid], for which the concentration for half-maximal inhibition (IC50) is under 50 µM.
